The results in this text go back to ChEMBL document CHEMBL1137094, “Facile incorporation of urea pseudopeptides into protease substrate analogue inhibitors” (Bioorg Med Chem Lett, 2004).

Each structure is given as a SMILES string.

A word on the IC50: it is the concentration needed to halve the response being measured. A low value points to greater potency. By inhibition is commonly meant the change of the read-out against control, counted positive when it falls. A higher inhibition goes with a strong effect.

The target in experiment [1] is T1, Angiotensin-converting enzyme (Sus scrofa, UniProt Q4ACT8).
T1 sequence (Q4ACT8 whole entry): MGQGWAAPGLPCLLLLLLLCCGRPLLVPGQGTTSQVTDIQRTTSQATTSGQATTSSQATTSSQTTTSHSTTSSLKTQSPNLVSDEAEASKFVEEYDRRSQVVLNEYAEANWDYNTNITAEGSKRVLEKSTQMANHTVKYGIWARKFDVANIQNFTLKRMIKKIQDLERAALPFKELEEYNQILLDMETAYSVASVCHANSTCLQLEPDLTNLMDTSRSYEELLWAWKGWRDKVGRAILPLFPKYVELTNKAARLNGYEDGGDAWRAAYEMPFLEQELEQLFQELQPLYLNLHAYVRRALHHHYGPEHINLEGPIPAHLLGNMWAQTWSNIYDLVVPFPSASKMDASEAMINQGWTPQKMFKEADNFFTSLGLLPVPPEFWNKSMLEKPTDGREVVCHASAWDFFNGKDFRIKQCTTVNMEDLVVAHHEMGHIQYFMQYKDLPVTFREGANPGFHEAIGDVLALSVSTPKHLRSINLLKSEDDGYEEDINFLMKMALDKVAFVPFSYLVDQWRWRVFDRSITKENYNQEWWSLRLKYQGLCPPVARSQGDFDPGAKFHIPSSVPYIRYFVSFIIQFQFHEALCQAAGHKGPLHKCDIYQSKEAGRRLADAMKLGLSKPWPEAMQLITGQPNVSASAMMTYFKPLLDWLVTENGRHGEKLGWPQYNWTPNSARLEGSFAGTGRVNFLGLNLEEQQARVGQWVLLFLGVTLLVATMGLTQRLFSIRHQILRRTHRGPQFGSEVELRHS
The experiment is described as follows: Inhibitory concentration against porcine kidney angiotensin converting enzyme cleavage of hippuryl-histidyl-leucine (HHL).

In experiment [2] the target is Human immunodeficiency virus type 1 protease (Human immunodeficiency virus 1, UniProt Q72874). Briefly: Inhibitory concentration against human immunodeficiency virus protease in fluorescence assay.
The target in experiment [3] is Human immunodeficiency virus type 1 protease (Human immunodeficiency virus 1) (UniProt Q72874). Briefly: Percent inhibition against human immunodeficiency virus protease in fluorescence assay. The conditions noted are these: concentration not given here.

Regarding `CC(C)C[C@H](NC(=O)[C@H](Cc1ccccc1)NC(=O)NCNC(=O)CNC(=O)[C@@H](N)Cc1ccc(O)cc1)C(=O)O`, 880 µM corresponded to half-maximal inhibition in experiment [1] (IC50).

The molecule `COC(=O)[C@@H](NC(=O)[C@@H](NC(=O)[C@H](Cc1ccccc1)NC(=O)N[C@H](Cc1ccccc1)NC(=O)[C@H](C)NC(=O)[C@H](C)N)C(C)C)C(C)C` returned an IC50 in experiment [2] of 32.4 µM.

Molecule `COC(=O)[C@@H](NC(=O)[C@@H](NC(=O)C(Cc1ccccc1)NC(=O)N[C@H](Cc1ccccc1)NC(=O)[C@H](C)NC(=O)[C@H](C)NC(=O)OCc1ccccc1)C(C)C)C(C)C` (stereo partly drawn) displayed an inhibition in experiment [3] of 35%.
